Laboratory results from US20050169944A1, “Increasing tumor oxygen content by administration of stressed cells” (priority 2002, published 2005).

Columns and labels:
[1] = tested on: FSaIIC murine fibrosarcoma; experiment: Tumor growth delay with melphalan (time to 500 mm^3); type: in vivo, C3H mice; conditions: melphalan 10 mg/kg i.p. plus 50 μl of 5 or 20 μg of ozone per ml of oxygen by tail vein injection, then 4 days; FIG. 8
Description: 8 week old male C3H mice were inoculated with 2×10^6 FSaIIC murine fibrosarcoma cells in the hind limb. When tumors reached a volume of 50 mm^3, animal were divided into 4 groups of 10 mice. Group I was untreated, Group II was administered a dose of 10 mg/kg melphalan by intraperitoneal injection. Group III was administered melphalan together with 50 μl of untreated syngeneic blood injected intramuscularly in the non-tumor bearing hind limb. Group IV was administered melphalan with 50 μl of syngeneic blood treated with 20 μl ozone/ml of oxygen. Following the initial melphalan injection, animals in Groups III and IV continued receiving intramuscular injections of 50 μl of untreated syngeneic blood, or 50 μl of syngeneic blood treated with 20 μl ozone/ml of oxygen, respectively for 4 days, one injection per day. All animals were observed until tumors attained a volume of 500 mm^3. The delay in tumor time to achieve 500 mm^3 volume is illustrated in FIG. 4.
8 week old male C3H mice were inoculated with 2×10^6 FSaIIC murine fibrosarcoma cells in the hind limb. When tumors reached a volume of 50 mm^3, animal were divided into 4 groups of 10 mice. Group I was untreated, Group II was administered a dose of 10 mg/kg melphalan by intraperitoneal injection. Group HI was administered melphalan together with an intramuscular injection of 1×10^6 syngeneic untreated mononuclear cells. […]

[2] = Tolerability of intravenous ozone in tumor bearing mice; type: in vivo, C3H mice; conditions: 50 μl of 5 or 20 μg of ozone per ml of oxygen, tail vein, 5 daily injections, with melphalan
Description: In order to stress cells in vivo, ozone at 5 μg per ml of oxygen, or 20 μg per ml of oxygen was injected directly into the tail vein of tumor bearing mice. Such injections are performed by filling a 1 cc syringe with the indicated concentration of ozone in medical grade oxygen. The gas is slowly injected into the tail vein so not to induce embolism. Due to the high solubility of oxygen and ozone in blood, embolism formation is not usually a problem.
8 week old male C3H mice were inoculated with 2×10^6 FSaIIC murine fibrosarcoma cells in the hind limb. When tumors reached a volume of 50 mm^3, animal were divided into 4 groups of 10 mice. Group I was untreated, Group II was administered a dose of 10 mg/kg melphalan by intraperitoneal injection. Group III was administered melphalan together with 50 μl of 5 μg of ozone per ml of oxygen by tail vein injection. Group IV was administered melphalan with 50 μl of 20 μg of ozone per ml of oxygen by tail vein injection. Following the initial melphalan injection, animals in Groups III and IV continued receiving intravenous injections of 50 μl of 5 μg of ozone per ml of oxygen, or 50 μl of 20 μg of ozone per ml of oxygen, respectively for 4 days, one injection per day. All animals were observed until tumors attained a volume of 500 mm^3. The delay in tumor time to achieve […] volume is illustrated in FIG. 8.

O=[O+][O-] [intravenous ozone, ozone]
delay in time to achieve 500 mm^3 tumor volume with melphalan [1]: increased the tumor inhibitory effects of melphalan | tolerability [2]: well tolerated
